“And” between values parts separate entries of the source, which are not always exact repeats. Identical values can stand only once.
Test: xn = mol fraction of the nth substance listed

Cc1cccc(C)c1 + CCCCCCCCCCO
viscosity [mPa·s], 101 kPa
Settings	298.15 K	308.15 K
x1 = 0.0627	9.938	6.871
x1 = 0.1424	7.856	5.489
x1 = 0.2052	6.481	4.577
x1 = 0.2618	5.435	3.88
x1 = 0.3217	4.497	3.243
x1 = 0.3934	3.563	2.622
x1 = 0.4989	2.534	1.912
x1 = 0.5581	2.095	1.617
x1 = 0.6343	1.645	1.299
x1 = 0.7131	1.292	1.045
x1 = 0.7991	1.001	0.835
x1 = 0.8465	0.874	0.742
x1 = 0.8964	0.762	0.662
x1 = 0.9421	0.674	0.599

Cc1cccc(C)c1 + CCCCCCO
101 kPa
Settings	viscosity [mPa·s]
303.15 K, x2 = 0.2002	0.683
313.15 K, x2 = 0.5	0.965
323.15 K, x2 = 0.4001	0.693

NCCCO + CCCCCCn1cc[n+](C)c1.F[B-](F)(F)F
101 kPa
Settings	viscosity [mPa·s]
303.15 K, x2 = 0.3217	34.55
308.15 K, x2 = 0.4942	36.45

O=S1(=O)CCCC1 + CCCCCO
viscosity [mPa·s], 101 kPa
Settings	x1 = 0.1119	x1 = 0.2324	x1 = 0.3323	x1 = 0.4328	x1 = 0.5236	x1 = 0.6267	x1 = 0.7208	x1 = 0.8145	x1 = 0.9043
303.15 K	2.686	2.749	2.951	3.218	3.489	3.956	4.594	5.618	7.273
308.15 K	2.366	2.416	2.578	2.807	3.082	3.491	4.077	4.986	6.441
313.15 K	2.096	2.14	2.278	2.479	2.729	3.111	3.644	4.454	5.735

Cc1ccc(O)cc1 + CCCCN(CCCC)CCCC
298.16 K, 101 kPa
Settings	viscosity [mPa·s]
x1 = 0.5103	5.579
x1 = 0.5404	5.375
x1 = 0.5979	9.34
x1 = 0.6392	17.64
x1 = 0.6996	33.29
x1 = 0.7333	51.5
x1 = 0.7543	67.62
x1 = 0.7729	84.91
x1 = 0.7927	101.9
x1 = 0.8108	118
x1 = 0.8352	127.1
x1 = 0.8549	122.8
x1 = 0.8734	104.8
x1 = 0.893	82.05
x1 = 0.9161	61.96
x1 = 0.9375	42.17
x1 = 0.9497	33.73
x2 = 0.005161	13.13

Cc1ccc(O)cc1 + CCCCNCCCC
298.16 K, 101 kPa
Settings	viscosity [mPa·s]
x1 = 0.4487	3.678
x1 = 0.4877	5.428
x1 = 0.5489	7.609
x1 = 0.5951	11.91
x1 = 0.6192	13.62
x1 = 0.6457	16.41
x1 = 0.6924	28.49
x1 = 0.7098	33.96
x1 = 0.7329	43.07
x1 = 0.7632	61.06
x1 = 0.7959	79.23
x1 = 0.833	89.65
x1 = 0.8754	78.76
x1 = 0.902	60.59
x1 = 0.9421	33.43
x2 = 0.001967	12.1
x2 = 0.003431	17.88
x2 = 0.015	18.21

C1CC[NH2+]C1.CCCCCCCC(=O)[O-] + CCCCO
viscosity [mPa·s], 101 kPa
Settings	x1 = 0.1198	x1 = 0.2524	x1 = 0.3299	x1 = 0.4745	x1 = 0.6187	x1 = 0.7174	x1 = 0.7912	x1 = 0.9269
293.15 K	5.39	10.82	13.21	22.51	34.14	44.35	51.93	65.75
298.15 K	6.9	10.82	–	21.6	30.39	38.92	44.89	57.02
303.15 K	4.75	8.64	11.15	17	24.8	31.23	35.44	45.4
308.15 K	4.32	7.79	10.03	14.95	21.43	26.63	29.97	38.73
313.15 K	3.6	6.6	8.5	13	17.8	21.5	25.3	31.7

CCC(C)O (stereo unspecified) + CCCCO
Settings	viscosity [mPa·s]
303.15 K, 101 kPa, x2 = 0.8988	2.875

Cc1cccc(C)c1 + CCCCO
308.15 K, 101 kPa
Settings	viscosity [mPa·s]
x2 = 0.0525	0.471
x2 = 0.1036	0.54
x2 = 0.19	0.553
x2 = 0.307	0.583
x2 = 0.4171	0.631
x2 = 0.5209	0.733
x2 = 0.619	0.815
x2 = 0.7117	0.947
x2 = 0.7995	1.131
x2 = 0.8828	1.323
x2 = 0.9619	1.556

Nc1ccccc1Cl + CCCCO
viscosity [mPa·s], 101 kPa
Settings	x1 = 0.0883	x1 = 0.1789	x1 = 0.2719	x1 = 0.3675	x1 = 0.4656	x1 = 0.5666	x1 = 0.6703	x1 = 0.7771	x1 = 0.8869
303.15 K	2.47	2.66	2.83	3	3.16	3.31	3.44	3.57	3.69
308.15 K	2.21	2.39	2.55	2.71	2.85	2.98	3.1	3.22	3.32
313.15 K	1.98	2.16	2.31	2.45	2.58	2.7	2.82	2.92	3
318.15 K	1.79	1.96	2.1	2.23	2.35	2.46	2.57	2.67	2.74

O=S1(=O)CCCC1 + CCCCO
viscosity [mPa·s], 101 kPa
Settings	x1 = 0.1066	x1 = 0.191	x1 = 0.2871	x1 = 0.3889	x1 = 0.4851	x1 = 0.5891	x1 = 0.6937	x1 = 0.7935	x1 = 0.9023
303.15 K	2.084	2.148	2.32	2.582	2.914	3.395	4.117	5.218	7.192
308.15 K	1.855	1.912	2.06	2.291	2.59	3.028	3.676	4.65	6.369
313.15 K	1.659	1.711	1.842	2.048	2.316	2.715	3.3	4.167	5.669

O=S1(=O)CCCC1 + CCCCOC(C)=O
viscosity [mPa·s], 101 kPa
Settings	x1 = 0.3402	x1 = 0.7887	x2 = 0.0164
303.15 K	–	4.275	–
308.15 K	1.145	–	7.925

Nc1ccccc1Cl + CCCCOCCO
303.15 K, 101 kPa
Settings	viscosity [mPa·s]
x1 = 0.1461	3.066
x1 = 0.2298	3.194
x1 = 0.3377	3.344
x1 = 0.4573	3.496
x1 = 0.563	3.619
x1 = 0.6667	3.722
x1 = 0.7494	3.786
x1 = 0.8351	3.833
x1 = 0.9459	3.859

O=S1(=O)CCCC1 + CCCCOCCO
303.15 K, 101 kPa
Settings	viscosity [mPa·s]
x1 = 0.0491	1.94
x1 = 0.0999	1.87
x1 = 0.2	2.002
x1 = 0.2998	2.501
x1 = 0.3503	2.882
x1 = 0.3999	3.311
x1 = 0.4495	3.777
x1 = 0.4999	4.28
x1 = 0.5997	5.339
x1 = 0.7015	6.489
x1 = 0.7991	7.639
x1 = 0.8987	8.898
x1 = 0.9504	9.535

NCCCO + CCCC[N+](CCCC)(CCCC)CCCC.[Br-]
viscosity, 101.33 kPa
Settings	293.15 K	298.15 K	303.15 K	308.15 K	313.15 K	318.15 K	323.15 K
x1 = 0.8	113.9 mPa·s	84.69 mPa·s	63.71 mPa·s	49.65 mPa·s	38.79 mPa·s	30.76 mPa·s	24.94 mPa·s
x1 = 0.9	79.29 mPa·s and 65.55 mPa·s	60.03 mPa·s and 50.16 mPa·s	46.01 mPa·s and 38.6 mPa·s	35.84 mPa·s and 29.98 mPa·s	28.31 mPa·s and 23.97 mPa·s	22.73 mPa·s and 19.27 mPa·s	18.62 mPa·s and 15.76 mPa·s

Cc1cccc(C)c1 + CCCO
viscosity [mPa·s], 100 kPa
Settings	298.15 K	308.15 K
x2 = 0.0641	0.5986	0.5469
x2 = 0.125	0.604	0.5561
x2 = 0.2247	0.6335	0.5935
x2 = 0.3538	0.694	0.633
x2 = 0.4693	0.779	0.6938
x2 = 0.5733	0.888	0.7826
x2 = 0.6675	1.006	0.8918
x2 = 0.7531	1.144	0.964
x2 = 0.8313	1.316	1.102
x2 = 0.903	1.509	1.277
x2 = 0.969	1.796	1.464
